Ends that are not written are not given here.
What was measured:
[1] = tested on: Bacillus subtilis; conditions: 16 h
Procedure: (§1) MICs of the peptides against six standard bacteria and four multidrug-resistant bacteria were determined by a broth microdilution assay as described previously. […] Cytotoxicities against mammalian cells were measured against human RBCs, mouse macrophage-derived RAW264.7 cells, and fibroblast NIH-3T3 cells. The anti-inflammatory activities of the peptides were examined by inhibiting nitrite production in LPS-stimulated RAW264.7 cells.

[2] = tested on: Eenterococcus faecalis; conditions: E, 16 h
Procedure: as §1

[3] = tested on: Escherichia coli; conditions: 16 h
Procedure: as §1

[4] = tested on: Pseudomonas aeruginosa; conditions: 16 h
Procedure: as §1

[5] = tested on: Salmonella typhimurium; conditions: murium, 16 h
Procedure: as §1

[6] = tested on: Staphylococcus aureus; conditions: 16 h
Procedure: as §1

[7] = tested on: MDRAB 12035(R); conditions: broth microdilution, 16 h; unit not given
Procedure: (§2) We examined the antimicrobial activities of the peptides against multidrug-resistant bacterial strains, including four gram-negative species (S. typhimurium 8009(R), E. coli 1229(R), P. aeruginosa 2095(R), and A. baumannii 12035(R); Table 3).
as §1

[8] = tested on: MDREC 1229(R); conditions: 16 h
Procedure: as §2, §1

[9] = tested on: MDRPA 2095(R); conditions: 16 h
Procedure: as §2, §1

[10] = tested on: MDRST 8009(R); conditions: broth microdilution, 16 h; unit not given
Procedure: as §2, §1

[11] = tested on: gram-negative bacteria (E. coli, S. typhimurium, P. aeruginosa); conditions: for GM of the MIC values, gram-negative: 16 h; for Therapeutic Index (MHC/GM), gram-negative: ratio MHC (μM) over GM of MIC (μM)
Procedure: (§3) This property is assessed by the therapeutic index which can be defined as a ratio of the […] against human hRBCs to the MIC against bacterial cells.
as §1

[12] = tested on: gram-positive bacteria (B. subtilis, E. faecalis, S. aureus); conditions: for GM of the MIC values, gram-positive: 16 h; for Therapeutic Index (MHC/GM), gram-positive: ratio MHC (μM) over GM of MIC (μM)
Procedure: as §3, §1

| Substance | MIC, Bacillus subtilis [1] | MIC, Eenterococcus faecalis [2] | MIC, Escherichia coli [3] | MIC, Pseudomonas aeruginosa [4] | MIC, Salmonella typhimurium [5] | MIC, Staphylococcus aureus [6] | MIC, MDRAB 12035(R) [7] | MIC, MDREC 1229(R) [8] | MIC, MDRPA 2095(R) [9] | MIC, MDRST 8009(R) [10] | GM of the MIC values, gram-negative [11] | Therapeutic Index (MHC/GM), gram-negative [11] | GM of the MIC values, gram-positive [12] | Therapeutic Index (MHC/GM), gram-positive [12] |
| --- | --- | --- | --- | --- | --- | --- | --- | --- | --- | --- | --- | --- | --- | --- |
| RAKIAKKIEKVGRNVRDGIIKA-NH2 [PapN-2A5A] | >128 µM | >128 µM | 2.00 µM | 8.00 µM | 4.00 µM | 128 µM | 32.0 µM | 4.00 µM | 16.0 µM | 8.00 µM | 4.67 µM | 42.9 | 213 µM | 0.939 |
| RAKIAKKIEKVGRNVRDGIIKAGPAVAVVGQAATVVK-NH2 [Papiliocin-2A5A] | 128 µM | >128 µM | 0.500 µM | 0.500 µM | 1.00 µM | >128 µM | 0.500 µM | 2.00 µM | 1.00 µM | 4.00 µM | 0.667 µM |  | 213 µM | 0.939 |
| RAKIFKKIEKVGRNVRDGIIKA-NH2 [PapN-2A] | 32.0 µM | 128 µM | 2.00 µM | 4.00 µM | 4.00 µM | 32.0 µM | 8.00 µM | 2.00 µM | 4.00 µM | 2.00 µM | 3.33 µM | 60.0 | 64.0 µM | 3.13 |
| RAKIFKKIEKVGRNVRDGIIKAGPAVAVVGQAATVVK-NH2 [Papiliocin-2A] | 64.0 µM | 128 µM | 0.250 µM | 0.500 µM | 0.500 µM | 128 µM | 0.500 µM | 1.00 µM | 1.00 µM | 1.00 µM | 0.417 µM |  | 107 µM | 1.87 |
| RFKIWKKIEKVGRNVRDGIIKA-NH2 [PapN-2F5W] | 8.00 µM | 64.0 µM | 1.00 µM | 2.00 µM | 2.00 µM | 16.0 µM | 4.00 µM | 2.00 µM | 2.00 µM | 2.00 µM | 1.67 µM | 120 | 29.3 µM |  |
| RWKIAKKIEKVGRNVRDGIIKA-NH2 [PapN-5A] | 16.0 µM | 128 µM | 1.00 µM | 2.00 µM | 2.00 µM | 16.0 µM | 8.00 µM | 2.00 µM | 8.00 µM | 4.00 µM | 1.67 µM | 120 | 53.3 µM | 3.75 |
| RWKIAKKIEKVGRNVRDGIIKAGPAVAVVGQAATVVK-NH2 [Papiliocin-5A] | 64.0 µM | 128 µM | 0.250 µM | 0.500 µM | 0.500 µM | 128 µM | 0.500 µM | 1.00 µM | 1.00 µM | 1.00 µM | 0.417 µM |  | 107 µM | 1.87 |
| RWKIFKKIEKVGRNVRDGIIKA-NH2 [PapN] | 8.00 µM | 64.0 µM | 1.00 µM | 2.00 µM | 2.00 µM | 8.00 µM | 2.00 µM | 4.00 µM | 2.00 µM | 2.00 µM | 1.67 µM | 120 | 26.7 µM |  |

From paper PMC4496781, “Functional Roles of Aromatic Residues and Helices of Papiliocin in its Antimicrobial and Anti-inflammatory Activities” (Scientific Reports, 2015)
